These results are taken from patent publication US20090197957A1, “Methods and compositions for the treatment of pain” (Nuon Therapeutics, Inc., priority 2005, published 2009).

SMILES strings stand for the structures. “And” between values parts separate entries of the source, which are not always exact repeats. Equal values may be shown once. “Also recorded” adds a separate entry of the source.

In assay [1] the test system is acetic acid-induced writhing. In words: Analgesia, acetic acid writhing in mice (Example 3). Type of assay: in vivo, mouse. The settings on record: for No. of Writhing Average: group of 5 mice; for % Inhibition: relative to vehicle control; for No. of Writhing Individual: single mice. The procedure:
3-Hydroxyanthranilic acid was evaluated for possible analgesic activity in mouse acetic acid-induced pain response assay.
3-Hydroxyanthranilic acid was purchased from Sigma (USA) by MDS Pharma Services-Taiwan Ltd. and administered orally at the doses of 400, 200 and 100 mg/kg for analgesia, acetic acid-induced writhing assay. 2% Tween 80 was used as the vehicle.
Male CD-1 (Crl.) mice provided by BioLasco Taiwan (under Charles River Laboratories Technology Licensee) were used. Space allocation for 10 animals was 29×18×13 cm. All animals were maintained in a controlled temperature (23° C.-24° C.) and humidity (60%-70%) environment with 12 hours light dark cycles for at least one week in MDS Pharma Services—Taiwan Laboratory prior to use. Free access to standard lab chow for Mice (LabDiet Rodent Diet, PMI Nutrition International, USA) and tap water was granted. All aspects of this work including housing, experimentation and disposal of animals were performed in general accordance with the Guide for the Care and Use of Laboratory Animals (National Academy Press, Washington, D.C., 1996).
Test substance was administered orally to groups of 5 CD-1 (Crl.) derived male or female mice weighing 24±2 g, 2 hour before injection of acetic acid (0.5%, 20 ml/kg IP). Reduction in the number of writhes by 50 percent or more (≧50%) per group of animals observed during the 5 to 10 minute period after acetic acid administration, relative to a vehicle-treated control group, indicates possible analgesic activity.
Test substance was administered orally to groups of 5 mice 1 hour before injection of 0.5% Acetic Acid (20 ml/kg IP). The number of writhing per group of animals observed during the 5 to 10 minute period after acetic acid challenge was observed. Reduction in the number of writhing by 50 percent or more (≧50%) relative to the vehicle-treated control group indicates possible analgesic activity.
Background: Writhing tests count abdominal constrictions after an irritant is injected.

Another assay has as its system IL-10. The experiment in a line: Serum IL-10 in mice with established CIA (ELISA). Type of assay: in vivo. The settings on record: treated for 10 days, 100, 200 or 400 mg/kg/day, listed as 3,4-DAA. The procedure:
FIG. 3 is a graphical representation depicting that treatment with 3,4-DAA leads to increased IL-10 levels in vivo. Mice with established CIA were treated with 3,4-DAA or vehicle (n=7) for 10 days (see FIG. 2), then bled. IL-10 in the sera was measured by ELISA.

In a further assay the target is Cyclooxygenase COX-1 (Homo sapiens, UniProt P23219). The experiment in a line: biochemical. The protocol: (§1) Methods employed in this study have been adapted from the scientific literature to maximize reliability and reproducibility. […] Assays were performed under conditions described in the accompanying “Methods” section of this report. The literature references for each assay are in the “Literature References” section. If either of these sections were not originally requested with the accompanying report, please contact us at the number below for a printout of either of these report sections.
(§2) Biochemical assay results are presented as the percent inhibition of specific binding or activity throughout the report.

Assay [2] relates to anti-type II collagen IgG1 and IgG2a. In words: Serum anti-collagen antibody levels (ELISA). Type of assay: in vivo, DBA/1 mice. The procedure:
ELISA plates (Nunc, Uxbridge, UK) were coated with 2 μg/ml of bovine CII dissolved overnight in Tris Buffer (0.05 M Tris, containing 0.2 M NaCl, pH 7.4) blocked with 2% bovine serum albumin (BSA) and then incubated with serial dilutions of test sera. A reference sample was included on each plate. Bound total IgG, IgG1 or IgG2a was detected by incubation with HRP-conjugated sheep anti-mouse IgG, IgG1 or IgG2a, followed by TMB substrate. Optical density was measured at 450 nm.

A further assay deals with T1, Cyclooxygenase COX-2 (Homo sapiens, UniProt P35354).
T1 construct: host or cells: insect Sf21
T1 sequence (P35354 18-604): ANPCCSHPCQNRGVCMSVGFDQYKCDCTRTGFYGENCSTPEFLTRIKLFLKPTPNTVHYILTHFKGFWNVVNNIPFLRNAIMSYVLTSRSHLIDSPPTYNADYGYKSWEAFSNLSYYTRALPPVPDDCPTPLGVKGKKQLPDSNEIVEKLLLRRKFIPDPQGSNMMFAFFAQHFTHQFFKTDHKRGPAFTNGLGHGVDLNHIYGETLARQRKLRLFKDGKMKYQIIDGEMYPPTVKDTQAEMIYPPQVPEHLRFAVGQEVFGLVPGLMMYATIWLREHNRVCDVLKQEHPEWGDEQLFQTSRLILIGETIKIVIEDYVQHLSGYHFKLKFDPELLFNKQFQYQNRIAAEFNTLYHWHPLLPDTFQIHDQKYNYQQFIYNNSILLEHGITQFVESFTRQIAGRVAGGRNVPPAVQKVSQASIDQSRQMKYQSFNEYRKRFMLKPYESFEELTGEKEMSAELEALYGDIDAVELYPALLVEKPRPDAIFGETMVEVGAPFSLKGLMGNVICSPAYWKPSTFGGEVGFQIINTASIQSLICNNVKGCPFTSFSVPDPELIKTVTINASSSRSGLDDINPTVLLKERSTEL
In words: 118010 Cyclooxygenase COX-2 biochemical assay (EIA quantitation of PGE2). The protocol:
as §1, §2

In general, % Inhibition refers to the drop in the measured response relative to a control, in per cent. High values mean a strong effect, low ones a weak effect. As usually defined, the inhibition is the drop in the measured response relative to a control, in per cent.

Chain of Cyclooxygenase COX-1 (P23219 24-599): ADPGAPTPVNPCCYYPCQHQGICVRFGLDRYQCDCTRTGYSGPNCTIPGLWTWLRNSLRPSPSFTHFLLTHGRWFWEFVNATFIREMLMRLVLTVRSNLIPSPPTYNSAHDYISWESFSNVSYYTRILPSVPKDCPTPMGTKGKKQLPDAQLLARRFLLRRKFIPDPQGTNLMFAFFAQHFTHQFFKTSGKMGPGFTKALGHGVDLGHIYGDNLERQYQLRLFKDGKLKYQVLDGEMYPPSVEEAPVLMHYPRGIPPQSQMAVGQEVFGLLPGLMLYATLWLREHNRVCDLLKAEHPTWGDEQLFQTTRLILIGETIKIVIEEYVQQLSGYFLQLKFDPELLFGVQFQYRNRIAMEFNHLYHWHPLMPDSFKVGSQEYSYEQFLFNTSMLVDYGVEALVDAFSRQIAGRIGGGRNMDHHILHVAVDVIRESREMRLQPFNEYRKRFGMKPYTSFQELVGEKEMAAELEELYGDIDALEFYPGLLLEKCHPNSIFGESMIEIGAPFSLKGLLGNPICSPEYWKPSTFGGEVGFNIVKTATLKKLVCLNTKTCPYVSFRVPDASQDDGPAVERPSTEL

Turning to `Nc1c(O)cccc1C(=O)O` [3-Hydroxyanthranilic acid], the “No. of Writhing Average” value is 13 in assay [1] (100 mg/kg PO), 12 in assay [1] (200 mg/kg PO) and 8 in assay [1] (400 mg/kg PO). For the same molecule, the “% Inhibition” value in assay [1] (100 mg/kg PO) amounted to 0%; in assay [1] (200 mg/kg PO), 8%; in assay [1] (400 mg/kg PO) it was 38%. Besides, the “No. of Writhing Individual” value is 18 and 12 (2×) and 13 and 10 in assay [1] (100 mg/kg PO); 16 and 9 and 12 and 10 and 15 in assay [1] (200 mg/kg PO); 5 (2×) and 6 and 14 and 12 in assay [1] (400 mg/kg PO before acetic acid (0.5%, 20 ml/kg IP), 5 to 10 minute period). Further, the “significant analgesic activity (≧50% inhibition of writhing relative to vehicle)” value in assay [1] (400, 200 and 100 mg/kg PO) was “did not demonstrate any significant analgesic activity”.

In the case of `COc1ccc(/C=C/C(=O)Nc2ccccc2C(=O)O)cc1OC` [Tranilast, 2-[[3-(3,4-dimethoxyphenyl)-1-oxo-2-propenyl]amino]benzoic acid], the “circulating IL-10 levels (sera)” value in the assay on IL-10 was “dose-dependent increase; also recorded: increased”. Also, the “effect on the activity of the COX-1 enzyme” value on Cyclooxygenase COX-1 is listed as “no effect”. The inhibition at 10 µM against Cyclooxygenase COX-1 was -2%; at Cyclooxygenase COX-2 (10 μM, n=2), 0%. Moreover, the “anti-collagen IgG1 or IgG2a levels in sera” value in assay [2] (200 mg/kg/day from the day of immunisation) is “no change”. The “anti-type II collagen IgG1 and IgG2a levels in sera” value in assay [2] (established CIA, 100, 200 or 400 mg/kg/day over 10 days) was “no differences”. Also, the “effect on the activity of the COX-2 enzyme” value at Cyclooxygenase COX-2 is “no effect”.
